From paper PMC12998938, “Neutrophil store-operated Ca^2+ entry: A correctable biomarker of cystic fibrosis lung disease progression” (Journal of cystic fibrosis : official journal of the …, 2025)

How the values were obtained:
[1] = test system: Ca2+ influx in CF neutrophils; test: Fluo-4 Ca2+ influx across the plasma membrane, CF neutrophils; format: cell-based, human
Method: (§1) Isolated neutrophils were incubated with peptide or vehicle control for 3 h. For the final hour of treatment, cells were loaded with Fluo-4 direct (Thermofisher) for 45 min at 37°C and 15 min at room temperature as described.
(§2) Fig. 3. ELD607 inhibits SOCE in non-CF and CF neutrophils. (A) and (B) Mean changes in fluo-4 fluorescence as a marker of cytoplasmic Ca^2+ levels in non-CF and CF neutrophils respectively before and after stimulation with 1 μM thapsigargin (Tg). Before stimulation, neutrophils were exposed to vehicle (0.1% DMSO in PBS), 10 μM ELD607 or scrambled peptide (control) for 3 h. N = 10 non-CF and 21 CF donors. Stats show ELD607 vs vehicle or scrambled peptide based on color. (C-F) Isolation of ER Ca^2+ release vs Ca^2+ influx across the plasma membrane in non-CF and CF Neutrophils. Neutrophils were stimulated with thapsigargin (1 μM) in the absence of extracellular Ca^2+ to allow the release of Ca^2+ stores to be measured. Extracellular Ca^2+ was then returned so that extracellular Ca^2+ influx could be measured. (C) Mean fold change in Fluo-4 fluorescence during ER store release in non-CF and CF neutrophils. […] (E) Mean fold change in fluo-4 fluorescence during Ca^2+ influx in non-CF and CF neutrophils. […]
(§3) SOCE has 2 phases: release of Ca^2+ from ER stores and Ca^2+ influx from the extracellular space via Ca^2+ channels such as Orai1. […] Once the stores had emptied, extracellular Ca^2+ was reintroduced and Ca^2+ influx was measured (Fig. 3C–F).
(§4) Fluo-4 Ca^2+ assays. […] For global Ca^2+ measurements, baseline fluorescent readings were made for 2 min (1 read every 30 s) using a Tecan Infinite M1000 plate reader (ex 494 em 516 nm, bandwidth 5 nm) before thapsigargin (Sigma-Aldrich) was added and the change in emission was recorded for 10 min (1 read every 30 s). […] Baseline fluo-4 fluorescence was read for 2 min before cell were stimulated with thapsigargin (Tocris). Reads continued for ~5 min before 1.2 mM Ca^2+ was added to the extracellular solution and SOCE was measured for ~10 mins. For analysis, all fluo-4 fluorescence reads are normalized to baseline.

[2] = test system: HEK293T Orai1, Orai2 and Orai3 triple knockout cells; test: SOCE in Orai1/2/3 triple knockout HEK293T cells; format: cell-based; conditions: thapsigargin, 7-9 replicates, 3 experiments
Description: We hypothesized that inhibiting SOCE in CF neutrophils may reduce the secretion of neutrophil elastase and other proteins associated with CF lung disease. To validate ELD607’s specificity for Orai1 over Orai2 and Orai3, we first evaluated ELD607 function in HEK293T cells that had Orai1, Orai2 and Orai3 stably knocked out. […] Next we evaluated ELD607’s ability to inhibit SOCE in non-CF and CF neutrophils.
Supplemental figure 3. […] Dose responses of thapsigargin-induced changes in cytoplasmic Ca^2+ concentrations. These studies were performed in HEK293T where Orai1, Orai2 and Orai3 had been stably knocked down (triple knockout cells, TKO) or in TKO cells that were transiently transfected with Orai1, Orai2 or Orai3 as indicated. All data are from 7-9 replicates per data point from 3 separate experiments.

[3] = test system: Ca2+ influx in non-CF neutrophils; test: Fluo-4 Ca2+ influx across the plasma membrane, non-CF neutrophils; format: cell-based, human
Method: as §1, §2, §3, §4

[4] = test system: Staphylococcus aureus-infected mice; conditions: ref [21], cited from earlier work
Orai1 = conditions: cartoon legend; reference not given; cited from earlier work
Description: Fig. 6. Cartoon of SOCE in neutrophils in the absence (left) and presence (right) of ELD607. Left, activation of Gq-linked GPCRs by appropriate agonists (e.g. ATP) leads to formation of inositol triphosphate (IP3) and ER store Ca^2+ depletion. This in turn causes STIM1 to rapidly aggregate at ER-plasma membrane junctions where it causes Orai1 to activate and aggregate to provide a second, amplifying wave of Ca^2+ which triggers neutrophil degranulation, as well as activating other Ca^2+-dependent processes (not shown). Right, ELD607 binds to Orai1, causing it to be ubiquitinated, internalized ...

[5] = test system: SOCE/Orai1 in CF peripheral blood neutrophils; test: Fluo-4 Ca2+ assay, global thapsigargin-stimulated Ca2+ response (SOCE), CF neutrophils; format: cell-based, human
Method: Neutrophils were immediately isolated by negative selection from deidentified blood samples using an EasySep human neutrophil isolation kit (Stem Cell Technologies) as described. Cytosolic Ca^2+ was measured using Fluo-4 as described. Protein lysate from isolated blood neutrophils was characterized by liquid chromatography with tandem mass spectrometry (LC-MS/MS) as described. Degranulation products in media were quantified by Luminex assay using a custom Bio-Plex human kit (BioRad) per the manufacturer’s protocol […]. Detailed methods for all experiments and measurements are provided in an online data supplement.
as §1
Fluo-4 Ca^2+ assays. Isolated neutrophils were incubated with peptide or vehicle control for 3 h. For the final hour of treatment, cells were loaded with Fluo-4 direct (Thermofisher) for 45 min at 37°C and 15 min at room temperature. For global Ca^2+ measurements, baseline fluorescent readings were made for 2 min (1 read every 30 s) using a Tecan Infinite M1000 plate reader (ex 494 em 516 nm, bandwidth 5 nm) before thapsigargin (Sigma-Aldrich) was added and the change in emission was recorded for 10 min (1 read every 30 s). To isolate phases of store operated Ca^2+ entry, cells underwent 3 rounds of centrifugation and resuspension in Ca^2+-free Ringer’s solution to remove extracellular Ca^2+. Baseline fluo-4 fluorescence was read for 2 min before cell were stimulated with thapsigargin (Tocris). Reads continued for ~5 min before 1.2 mM Ca^2+ was added to the extracellular solution and SOCE was measured for ~10 mins. For analysis, all fluo-4 fluorescence reads are normalized to baseline.

[6] = test system: bacterial lung infections in mice; conditions: cited from earlier work
Description: In ... || CF neutrophils with elevated SOCE undergo more degranulation, leading to greater release of proteases/pro-inflammatory mediators. Therefore, increased SOCE may be a driving force for declining CF lung function. However, there is much to do to fully understand this phenomenon, and our data identify an association, not a causality. […] To date, several blood biomarkers have been identified as predictors of CF lung disease. Most biomarkers ( ...

[7] = murine models of bacterial lung infections, ref [21]

## VHDIVNMLIRG [ELD607, size-optimized SPLUNC1/α6 peptidomimetic]
[1]; CF neutrophils, absolute terms
  Ca2+ influx relative to non-CF levels: restored Ca^2+ from influx CF neutrophils to non-CF levels
[1]; CF, 3 h pre-treatment, 1 μM thapsigargin, extracellular Ca2+ (1.2 mM) returned, 3 donors in triplicate, vs non-CF p<0.0001
  IC50: 493 nM
[2]
  effect on SOCE: no effect on SOCE
[3]; non-CF neutrophils (Fig. 3)
  attenuation of Ca2+ influx: markedly attenuated Ca^2+ influx
[3]; non-CF, 3 h pre-treatment, 1 μM thapsigargin, extracellular Ca2+ (1.2 mM) returned, 2 donors in triplicate, vs CF p<0.0001
  IC50: 340 nM
[4]; S. aureus-infected mice
  neutrophilia and neutrophil elastase release: reduces neutrophilia and neutrophil elastase release
[4]; mice, S. aureus, reduced lung injury, increased survival
  neutrophil influx into the lungs: reduces neutrophil influx into the lungs of mice
Orai1
  effect on Orai1: binds to Orai1, causing it to be ubiquitinated, internalized and degraded
[5]; CF, 10 μM peptide, 3 h pre-treatment, 1 μM thapsigargin, Fluo-4, N = 21 donors
  inhibition of SOCE (global Ca2+ response): significantly inhibited SOCE regardless of genotype
[5]; neutrophils (discussion of Fig. 3)
  completeness of inhibition of Ca2+ signaling: not 100% inhibited
[6]; inhaled ELD607, ref [53]
  neutrophilia caused by bacterial infections: abolished neutrophilia
[6]; [7]
  neutrophilia and lung damage: reduced neutrophilia and lung damage
  survival: increased survival
[6]; wild-type mice, alveolar macrophages depleted, ref [21]
  beneficial effects after depletion of alveolar macrophages: abolished the beneficial effects of ELD607
